Holding throughout (assay type): biochemical
Experiment [1] deals with T1, TyrA-ATc arogenate dehydrogenase (Arabidopsis thaliana, UniProt Q944B6, V36M).
T1 construct: introduces an ATG initiating codon and an Nde I restriction site (underlined) at position 174 from the first ATG codon (V58M); made in house; host or cells: Escherichia coli AT2471 (pET21a(+)), soluble crude extract
Kind of experiment: arogenate dehydrogenase activity, spectrophotometric monitoring at 340 nm, recombinant TyrA-ATc. The note with it: for Michaelis constant: TyrA-Atc, Km for substrate/cofactor; for inhibition of arogenate dehydrogenase activity: TyrA-ATc, 1 mM. As to the method:
(§1) The arogenate dehydrogenase activity is measured at 25° C. by spectrophotometric monitoring, at 340 nm, of the formation of NADH or NADPH in a solution containing 50 mM of Tris-HCl, pH 8.6, 300 μm of arogenate and 1 mM of NAD or […] in a total volume of 200 μl.
(§2) Eshcerichia coli AT2471 cells were transformed with each one of the plasmids pET21-TyrA-AT obtained in example 3, and then cultured at 37° C. in 2 liters of Luria-Bertani medium supplemented with 100 μg/ml of carbenicillin. When the culture had reached the equivalent of an absorbance at 600 nm (A600) of 0.6, 1 mM of isopropyl-β-D-thiogalactoside was added to the culture medium in order to induce recombinant protein synthesis. The cells were then cultured for 16 h at 28° C., harvested, and then centrifuged for 20 min at 40 000 g. The pellet was then resuspended in a 50 mM Tris-HC1 buffer, pH 7.5, containing 1 mM EDTA, 1 mM dithiothreitol, 1 mM benzamidine HCl and 5 mM aminocaproic acid, and then sonicated (100 pulses every 3 seconds at power 5) with a Vibra-Cell disrupter (Sonics and Materials, Danbury, Conn., USA). The crude extracts thus obtained were then centrifuged for 20 min at 40 000 g, and the supernatants were used directly for the enzyme assays.
(§3) The biochemical characterization of the recombinant arogenate dehydrogenase enzymes was carried out using the soluble protein extracts of the transformed E. coli strains. The arogenate dehydrogenase activity was measured according to the method described in example 4. […] No arogenate dehydrogenase activity was detected in the presence of NAD, and no prephenate dehydrogenase activity was detected whatever the cofactor used (NADP or NAD) and whatever the protein tested (TyrA-ATc, TyrA-AT1 or TyrA-AT2). […] Each one of these enzymes has a Michaelis-Menten-type behavior, and their Km value for arogenate and NADP is relatively the same (FIGS. 2 and 3). The Michaelis constants for NADP are, respectively, 40 μM for TyrA-Atc, 60 μM for TyrA-AT1, and 20 μM for TyrA-AT2. The Michaelis constants for arogenate are, respectively, 70 μM for TyrA-Atc, 45 μM for TyrA-AT1, and 45 μM for TyrA-AT2. In addition, like the other plant arogenate dehydrogenases (Byng et al., 1981, Phytochemistry 6, 1289-1292; Connelly and Conn, 1986, Z. Naturforsch 41c, 69-78; Gaines et al., 1982 Planta 156, 233-240), the Arabidopsis arogenate dehydrogenases are all very sensitive to tyrosine, the product of the enzyme reaction, and insensitive to 1 mM of phenylalanine and 1 mM of p-hydroxyphenylpyruvate.

Experiment [2] concerns the target T2, TyrA-AT1 arogenate dehydrogenase (Arabidopsis thaliana, UniProt Q944B6).
T2 construct: recombinant proteins were observed only with the constructs encoding the proteins M58-TyrA-Atc and M58-TyrA-AT1; made in house; host or cells: Escherichia coli AT2471 (pET21a(+)), soluble crude extract
T2 sequence (Q944B6 with tags, fused parts or gaps): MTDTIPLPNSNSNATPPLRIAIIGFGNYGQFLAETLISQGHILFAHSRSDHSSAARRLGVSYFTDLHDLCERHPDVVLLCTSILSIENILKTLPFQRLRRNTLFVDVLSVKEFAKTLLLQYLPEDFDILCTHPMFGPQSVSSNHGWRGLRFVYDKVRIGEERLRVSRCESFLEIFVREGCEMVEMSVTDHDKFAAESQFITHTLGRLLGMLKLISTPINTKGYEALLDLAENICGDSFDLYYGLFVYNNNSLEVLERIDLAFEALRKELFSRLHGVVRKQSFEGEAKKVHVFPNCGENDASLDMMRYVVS
As to the kind of experiment: arogenate dehydrogenase activity, spectrophotometric monitoring at 340 nm, recombinant TyrA-AT1. The note with it: for Michaelis constant: Km for substrate/cofactor; for inhibition of arogenate dehydrogenase activity: 1 mM. How it is done:
as §1, §2, §3

Experiment [3] has as its target T3, TyrA-AT2 arogenate dehydrogenase (Arabidopsis thaliana, UniProt Q944B6).
T3 construct: at the ATG codon of the second open reading frame (at position 1081 from the first ATG codon); made in house; host or cells: Escherichia coli AT2471 (pET21a(+)), soluble crude extract
T3 sequence (Q944B6 339-640): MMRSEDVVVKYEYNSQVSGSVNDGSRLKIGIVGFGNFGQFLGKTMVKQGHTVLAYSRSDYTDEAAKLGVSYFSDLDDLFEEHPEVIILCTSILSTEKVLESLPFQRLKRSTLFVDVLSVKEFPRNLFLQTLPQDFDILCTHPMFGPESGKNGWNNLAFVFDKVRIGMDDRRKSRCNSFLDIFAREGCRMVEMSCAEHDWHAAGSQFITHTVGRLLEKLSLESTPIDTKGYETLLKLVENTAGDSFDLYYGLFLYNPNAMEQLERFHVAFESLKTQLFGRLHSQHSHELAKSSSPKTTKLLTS
Kind of experiment: arogenate dehydrogenase activity, spectrophotometric monitoring at 340 nm, recombinant TyrA-AT2. The note with it: for Michaelis constant: Km for substrate/cofactor; for inhibition of arogenate dehydrogenase activity: 1 mM. As to the method:
as §1, §2, §3

The test system of experiment [4] is Synechocystis arogenate dehydrogenase. As to the kind of experiment: arogenate dehydrogenase activity, spectrophotometric monitoring at 340 nm, recombinant Synechocystis enzyme. To be noted: for Michaelis constant: Km for substrate/cofactor. How it is done: as §1, §2
The sequence of the gene encoding the A. thaliana arogenate dehyrogenase identified in example 1 (TyrA) made it possible to identify an arogenate dehydrogenase gene in the bacterium Synechocystis (accession number: 1652956). This gene was originally described as encoding a “prephenate dehydrogenase” enzyme. It was isolated from a Synechocystis genomic library and the enzyme was produced in the same way as the A. thaliana enzyme, according to the protocol described in example 5 . […] The arogenate dehydrogenase activity was measured according to the method described in example 4 . […] No arogenate dehydrogenase activity was detected in the presence of NAD, and no prephenate dehydrogenase activity was detected whatever the cofactor used (NADP or NAD). […]

For experiment [5], the target named is T4, TyrA-ATc arogenate dehydrogenase (Arabidopsis thaliana, UniProt Q944B6).
T4 construct: introduces an ATG initiating codon and an Nde I restriction site (underlined) at position 174 from the first ATG codon (V58M); made in house; host or cells: Escherichia coli AT2471 (pET21a(+)), soluble crude extract
T4 sequence (Q944B6 36-640 V36M): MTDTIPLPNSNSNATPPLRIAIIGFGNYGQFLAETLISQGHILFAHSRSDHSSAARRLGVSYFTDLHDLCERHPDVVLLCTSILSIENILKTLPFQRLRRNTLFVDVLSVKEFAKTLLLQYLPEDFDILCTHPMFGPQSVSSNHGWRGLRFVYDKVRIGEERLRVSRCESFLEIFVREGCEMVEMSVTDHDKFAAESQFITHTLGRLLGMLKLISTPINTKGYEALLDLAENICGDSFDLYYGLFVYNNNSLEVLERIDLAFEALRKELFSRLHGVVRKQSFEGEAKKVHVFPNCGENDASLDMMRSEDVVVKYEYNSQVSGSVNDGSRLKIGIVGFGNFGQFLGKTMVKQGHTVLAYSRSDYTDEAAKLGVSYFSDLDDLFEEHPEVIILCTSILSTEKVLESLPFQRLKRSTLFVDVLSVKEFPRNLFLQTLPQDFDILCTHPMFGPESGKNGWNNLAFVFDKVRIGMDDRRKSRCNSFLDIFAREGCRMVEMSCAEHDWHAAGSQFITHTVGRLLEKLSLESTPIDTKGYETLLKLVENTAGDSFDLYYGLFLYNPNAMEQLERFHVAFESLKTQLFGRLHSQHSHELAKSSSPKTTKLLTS
As to the kind of experiment: arogenate dehydrogenase activity, spectrophotometric monitoring at 340 nm, recombinant TyrA-ATc. The note with it: TyrA-Atc; inhibition competitive with respect to arogenate. As to the method:
as §1, §2, §3

The mark [6] stands for this setting: inhibition competitive with respect to arogenate.

T1 sequence (Q944B6 36-640 V36M): as above

For the molecule `N[C@@H](CC1(C(=O)O)C=CC(O)C=C1)C(=O)O` (stereo partly drawn) [arogenate], the Michaelis constant in experiment [1] was 70 µM; in experiment [2], 45 µM; in experiment [3], 45 µM; in experiment [4], 107 µM.
On to `N[C@@H](Cc1ccccc1)C(=O)O` [phenylalanine], for which the “inhibition of arogenate dehydrogenase activity” value (“inhibition” below) in experiment [1], in experiment [2] and in experiment [3] was “insensitive” each time.
On to `N[C@@H](Cc1ccc(O)cc1)C(=O)O` [tyrosine], for which the Ki came to 14 µM in experiment [5], 8 µM in experiment [2] (setting [6]) and 12 µM in experiment [3] (setting [6]).
Take `O=C(O)C(=O)Cc1ccc(O)cc1` [p-hydroxyphenylpyruvate]: the “inhibition” value in experiment [1], in experiment [2] and in experiment [3] was “insensitive” throughout.
Consider `NC(=O)c1ccc[n+]([C@@H]2O[C@H](COP(=O)([O-])OP(=O)(O)OC[C@H]3O[C@@H](n4cnc5c(N)ncnc54)[C@H](OP(=O)(O)O)[C@@H]3O)[C@@H](O)[C@H]2O)c1` [NADP], for which the Michaelis constant in experiment [1] came to 40 µM; in experiment [2], 60 µM; in experiment [3], 20 µM; in experiment [4] it was 6 µM.
Take `O=C(O)C(=O)CC1(C(=O)O)C=CC(O)C=C1` (stereo not drawn) [prephenate]: the “inhibition” value in experiment [1], in experiment [2], in experiment [3] and in experiment [4] (1 mM) was “does not inhibit” in each case.

The term Ki denotes the dissociation constant of the complex between target and ligand, obtained from inhibition or displacement.

The record behind these values is patent publication US7279302B2, “Methods for identifying herbicidal compounds” (Bayer CropScience S.A., priority 2000, dated 2007).
